Measurements reported in patent US12006289B2, “Potassium channel inhibitors” (Saniona A/S, priority 2019, dated 2024).

biological target: erythrocyte KCa3.1 channels (Homo sapiens (Human), UniProt O15554); experiment: Erythrocyte KCa3.1 assay; type: cell-based; conditions: human erythrocytes, A23187-activated, 37° C.; read-out: RBC K (in vitro) Human IC50
Protocol: Human blood was drawn from healthy human volunteers in a standard heparinized blood sampling vial (Vacutainer, Li/heparin, BD Bioscience, Plymouth, UK). The erythrocytes were packed by centrifugation, and the plasma and buffy coat were removed by aspiration. Erythrocytes were washed three times in the experimental salt solution and then stored at 0° C. until use. Blood samples from NMRI mice or from Wistar rats were treated similarly. The methodological principle is outlined in Macey et al. (1978) and further described in Strøbæk et al. (2013). Activation of the erythrocyte KCa3.1 channels were obtained by addition of the Ca^2+ ionophore A23187, which causes synchronized hyperpolarization, which is reported as a CCCP-mediated shift in the unbuffered extracellular pH of the erythrocyte suspension. Standard procedure: 3 mL unbuffered experimental salt solution (in mM: 2 KCl, 154 NaCl, 0.05 CaCl2) was heated to 37° C. with stirring. Packed erythrocytes were added (50 μL, final cytocrit 1.5%), and the extracellular pH (pHo) followed with a glass/calomel (pHG200-8/REF200, Radiometer, Denmark) electrode pair. CCCP (3 μL, final concentration 20 μM) was added followed by varying concentrations of test compounds (DMSO concentration constant). After pH stabilization at ˜7.2, A23187 (3 μL, final concentration 0.33 μM) was added to initiate the experiment. After the peak hyperpolarization was attained, the intracellular pH (pHi constant during the experiment) was found by haemolysing the erythrocytes via addition of 100 μL of Triton-X100.
The erythrocyte membrane potential, Vm, was calculated according to: Vm=−61.5 mV×(pHo−pHi) and the fractional remaining Ca^2+-activated K^+-conductance at the concentration C of blocker, fGK(C), was calculated from
[formula] where the K^+ equilibrium potential EK=−107 mV, the Cl^− equilibrium potential ECl=−12 mV and the Vm(0) and Vm(C) are the peak hyperpolarizations in the control and in the presence of a concentration of C of blocker respectively.
IC50 values for compounds were calculated from a plot of fGK(C) versus C by a fit to the Hill equation, using a custom program written in the IGOR-Pro software (WaveMetrics, Lake Oswego, OR, USA). All IC50-values are reported in μM.

IC50 [nM] | SMILES
270 | COC(=O)N(C[C@@H]1COCCN1C)C1(c2ccc(F)c(C(F)(F)F)c2)CC1 [[40], Methyl (R)-(1-(4-fluoro-3-(trifluoromethyl)phenyl)cyclopropyl)((4-methylmorpholin-3-yl)methyl)carbamate]
230 | O=C(OCC1CC1)N(C[C@@H]1CCCN1)C1(c2ccc(F)c(C(F)(F)F)c2)CC1 [[48], Cyclopropylmethyl (S)-(1-(4-fluoro-3-(trifluoromethyl)phenyl)cyclopropyl)(pyrrolidin-2-ylmethyl)carbamate]
290 | COC(=O)N(C[C@H]1COCCN1C)C1(c2ccc(F)c(C(F)(F)F)c2)CC1 [[43], Methyl (S)-(1-(4-fluoro-3-(trifluoromethyl)phenyl)cyclopropyl)((4-methylmorpholin-3-yl)methyl)carbamate]
300 | COC(=O)N(CC(C)(C)N)C1(c2cc(Cl)cc(Cl)c2)CC1 [[11], Methyl (2-amino-2-methylpropyl)(1-(3,5-dichlorophenyl)cyclopropyl)carbamate]
87 | COC(=O)N(C[C@@H]1CCCN1)C1(c2ccc(F)c(OC(F)(F)F)c2)CC1 [[28], Methyl (S)-(1-(4-fluoro-3-(trifluoromethoxy)phenyl)cyclopropyl)(pyrrolidin-2-ylmethyl)carbamate]
93 | N[C@H]1CCC[C@H]1NC1(c2ccc(F)c(C(F)(F)F)c2)CC1 [[52], (1R,2S)—N1-(1-(4-fluoro-3-(trifluoromethyl)phenyl)cyclopropyl)-cyclopentane-1,2-diamine]
120 | COC(=O)N(C[C@@H]1CCCN1)C1(c2ccc(F)c(C(F)(F)F)c2)CC1 [[23], Methyl (S)-(1-(4-fluoro-3-(trifluoromethyl)phenyl)cyclopropyl)(pyrrolidin-2-ylmethyl)carbamate]
75 | CC(C)(N)CN(C1(c2ccc(F)c(C(F)(F)F)c2)CC1)S(C)(=O)=O [[21], N-(2-amino-2-methylpropyl)-N-(1-(4-fluoro-3-(trifluoromethyl)phenyl)cyclopropyl)methanesulfonamide]
410 | N[C@H]1CCC[C@@H]1NC1(c2ccc(F)c(C(F)(F)F)c2)CC1 [[51], (1S, 2S)—N1-(1-(4-fluoro-3-(trifluoromethyl)phenyl)cyclopropyl)-cyclopentane-1,2-diamine]
180 | CC(C)(N)CNC1(c2ccc(F)c(C(F)(F)F)c2)CC1 [[25], N1-(1-(4-fluoro-3-(trifluoromethyl)phenyl)cyclopropyl)-2-methylpropane-1,2-diamine]
180 | O=C(OC1CC1)N(C[C@@H]1CCCN1)C1(c2ccc(F)c(C(F)(F)F)c2)CC1 [[45], Cyclopropyl (S)-(1-(4-fluoro-3-(trifluoromethyl)phenyl)cyclopropyl)(pyrrolidin-2-ylmethyl)carbamate]
18 | CC(C)(N)CN(C1CCC1)C1(c2cccc(C(F)(F)F)c2)CC1 [[18], N1-cyclobutyl-2-methyl-N1-(1-(3-(trifluoromethyl)phenyl)cyclopropyl)propane-1,2-diamine]
52 | CCOC(=O)N(C[C@@H]1CCCN1)C1(c2ccc(F)c(C(F)(F)F)c2)CC1 [[34], Ethyl (S)-(1-(4-fluoro-3-(trifluoromethyl)phenyl)cyclopropyl)(pyrrolidin-2-ylmethyl)carbamate]
47 | CCOC(=O)N(CC(C)(C)N)C1(c2ccc(F)c(C(F)(F)F)c2)CC1 [[19], Ethyl (2-amino-2-methylpropyl)(1-(4-fluoro-3-(trifluoromethyl)phenyl)cyclopropyl)carbamate]
310 | COC(=O)N(C1CNC1)C1(c2ccc(F)c(C(F)(F)F)c2)CC1 [[5], Methyl azetidin-3-yl(1-(4-fluoro-3-(trifluoromethyl)phenyl)cyclopropyl)carbamate]
170 | COC(=O)N(CC1CCN1C)C1(c2ccc(F)c(C(F)(F)F)c2)CC1 (stereo not shown) [[30], Methyl (1-(4-fluoro-3-(trifluoromethyl)phenyl)cyclopropyl)((1-methylazetidin-2-yl)methyl)carbamate]
100 | COC(=O)N(C[C@@]1(C)CCCN1)C1(c2ccc(F)c(C(F)(F)F)c2)CC1 [[46], Methyl (R)-(1-(4-fluoro-3-(trifluoromethyl)phenyl)cyclopropyl)((2-methylpyrrolidin-2-yl)methyl)carbamate]

IC50 [nM] | SMILES
71 | COC(=O)N1CC(N(C(=O)OC)C2(c3ccc(F)c(C(F)(F)F)c3)CC2)C1 [[4], Methyl 3-((1-(4-fluoro-3-(trifluoromethyl)phenyl)cyclopropyl) (methoxycarbonyl)amino)azetidine-1-carboxylate]
390 | CS(=O)(=O)N(CC1(N)CC1)C1(c2ccc(F)c(C(F)(F)F)c2)CC1 [[49], N-((1-aminocyclopropyl)methyl)-N-(1-(4-fluoro-3-(trifluoromethyl)-phenyl)cyclopropyl)methanesulfonamide]
210 | COC(=O)N(C[C@H]1CCCN1)C1(c2ccc(F)c(C(F)(F)F)c2)CC1 [[22], Methyl (R)-(1-(4-fluoro-3-(trifluoromethyl)phenyl)cyclopropyl)(pyrrolidin-2-ylmethyl)carbamate]
400 | COC(=O)N(CC(C)(C)N)C1(c2cccc(Br)c2)CC1 [[12], Methyl (2-amino-2-methylpropyl)(1-(3-bromophenyl)cyclopropyl)carbamate]
440 | COC(=O)N(CC(C)(C)N)C1(c2cccc(Cl)c2)CC1 [[13], Methyl (2-amino-2-methylpropyl)(1-(3-chlorophenyl)cyclopropyl)carbamate]
270 | COC(=O)N(CC1CCN1)C1(c2ccc(F)c(OC(F)(F)F)c2)CC1 (stereo not shown) [[32], Methyl (azetidin-2-ylmethyl)(1-(4-fluoro-3-(trifluoromethoxy)phenyl)cyclopropyl)carbamate]
420 | COC(=O)N(C[C@@H]1COCCN1)C1(c2ccc(F)c(C(F)(F)F)c2)CC1 [[39], Methyl (R)-(1-(4-fluoro-3-(trifluoromethyl)phenyl)cyclopropyl)(morpholin-3-ylmethyl) carbamate]
250 | CC(C)(O)CN(CC1CCN1)C1(c2ccc(F)c(C(F)(F)F)c2)CC1 (stereo not shown) [[14], 1-((azetidin-2-ylmethyl)(1-(4-fluoro-3-(trifluoromethyl)phenyl)cyclopropyl)amino)-2-methyl propan-2-ol]
330 | COC(=O)N(C[C@H]1CCCN1)C1(c2ccc(F)c(OC(F)(F)F)c2)CC1 [[29], Methyl (R)-(1-(4-fluoro-3-(trifluoromethoxy)phenyl)cyclopropyl)(pyrrolidin-2-ylmethyl)carbamate]
190 | Fc1ccc(C2(N(CC3CC3)C3CNC3)CC2)cc1C(F)(F)F [[6], N-(cyclopropylmethyl)-N-(1-(4-fluoro-3-(trifluoromethyl)phenyl)cyclopropyl)azetidin-3-amine]
140 | COC(=O)N(CC(C)(C)N)C1(c2cccc(C(F)(F)F)c2)CC1 [[15], Methyl (2-amino-2-methylpropyl)(1-(3-(trifluoromethyl)phenyl)cyclopropyl)carbamate]
24 | CC(C)(N)CN(C1CC1)C1(c2cccc(C(F)(F)F)c2)CC1 [[10], N1-cyclopropyl-2-methyl-N1-(1-(3-(trifluoromethyl)phenyl)cyclopropyl)propane-1,2-diamine]
140 | CN1CCC[C@H]1CN(C1(c2ccc(F)c(C(F)(F)F)c2)CC1)S(C)(=O)=O [[37], (S)—N-(1-(4-fluoro-3-(trifluoromethyl)phenyl)cyclopropyl)-N-((1-methylpyrrolidin-2-yl)methyl)methanesulfonamide]
150 | COC(=O)N(C[C@]1(C)CCCN1)C1(c2ccc(F)c(C(F)(F)F)c2)CC1 [[50], Methyl (S)-(1-(4-fluoro-3-(trifluoromethyl)phenyl)cyclopropyl)((2-methylpyrrolidin-2-yl)methyl)carbamate]
220 | NC1(CNC2(c3ccc(F)c(C(F)(F)F)c3)CC2)CC1 [[47], N-((1-aminocyclopropyl)methyl)-1-(4-fluoro-3-(trifluoromethyl)phenyl)cyclopropan-1-amine]
350 | CC(C)(N)CN(C(=O)C1CC1)C1(c2ccc(F)c(C(F)(F)F)c2)CC1 [[9], N-(2-amino-2-methylpropyl)-N-(1-(4-fluoro-3-(trifluoromethyl)phenyl)cyclopropyl)cyclopropanecarboxamide]

SMILES | IC50 [nM]
CS(=O)(=O)N(C[C@H]1CCCN1)C1(c2ccc(F)c(C(F)(F)F)c2)CC1 [[41], (R)—N-(1-(4-fluoro-3-(trifluoromethyl)phenyl)cyclopropyl)-N-(pyrrolidin-2-ylmethyl) methane sulfonamide] | 380
